# Columns and labels:
# MexL [1] = target: T1, MexL (Pseudomonas aeruginosa, UniProt Q9HXW2); experiment: thermal shift; format: biochemical
# T1 sequence (Q9HXW2 1-212): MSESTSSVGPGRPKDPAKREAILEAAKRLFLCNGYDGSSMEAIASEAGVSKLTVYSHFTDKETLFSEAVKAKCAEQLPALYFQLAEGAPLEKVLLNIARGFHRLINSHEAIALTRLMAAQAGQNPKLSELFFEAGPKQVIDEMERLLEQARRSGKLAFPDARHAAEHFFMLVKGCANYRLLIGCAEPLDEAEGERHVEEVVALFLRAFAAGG
# MexL [2] = target: T1, MexL; experiment: BLI; format: binding
SMILES,thermal shift (Tm decrease) and EMSA interference with DNA binding (MexL [1]),Kd (MexL [2]) [µM]
"Oc1cc(Cl)ccc1Oc1ccc(Cl)cc1Cl [TCS, triclosan]",these two antimicrobials both can interfere with the DNA-binding activity of MexL in EMSA,–
"Cn1c2cccc(=O)c-2nc2ccccc21 [PYO, pyocyanin]",–,84.2 ± 1.8
"CN(C)[C@@H]1C(O)=C(C(N)=O)C(=O)[C@@]2(O)C(O)=C3C(=O)c4c(O)cccc4[C@@](C)(O)[C@H]3C[C@@H]12 [TET, tetracycline]","both TET and TCS also significantly reduce the Tm values of MexL (Fig. 6b), indicating their interaction with MexL",–
